In US7803818B2, “Amorphous form of 1,2-dihydropyridine compound” (Eisai R&D Management Co., Ltd., priority 2005, dated 2010):

Key:
[1] = Solubility in JP2 fluid after shaking 5 minutes (shake flask method); type: physicochemical; details: for Concentration (solubility in JP2 fluid after shaking 5 minutes): JP2 fluid pH 6.8, about 5 mg in 5 mL, shaking 5 minutes at room temperature, filtration, HPLC
Procedure: Measurement of Solubility in JP2 Fluid after Shaking 5 minutes (Shake Flask Method)
Sample solutions were prepared by placing each sample (about 5 mg) in test tube, adding 5 mL of “2nd fluid” as described in General Tests (disintegration test) of Japanese Pharmacopeia (JP2 fluid: pH 6.8), and shaking 5 minutes at room temperature, followed by filtration. These sample solutions were analyzed using high performance liquid chromatography (HPLC), and calculated the concentration.
HPLC System: LC-10AT System (from Shimadzu Corporation)
Detector: ultraviolet absorptiometer (wavelength: 290 nm)
Column: YMC Pack Pro C18, 4.6 mm I.D.×150 mm (from YMC, Japan)
Column temperature: 35° C.
Auto sampler temperature: 25° C.
A: water/acetonitrile/ammonium acetate (900:100:1, v/v/w)
B: water/acetonitrile/ammonium acetate (100:900:1, v/v/w)
(Isocratic Condition: B Concentration=40%)

AMPA receptor = details: see Patent Document 1 (WO/JP01/96308); cited from earlier work

Row | Compound | solubility in a solution such as JP2 fluid ([1]; JP2 fluid (2nd fluid of Disintegration Test, Japanese pharmacopoeia)) | Concentration (solubility in JP2 fluid after shaking 5 minutes) [1] [µg/mL] | antagonistic action against AMPA receptor (AMPA receptor)
1 | N#Cc1ccccc1-c1cc(-c2ccccn2)cn(-c2ccccc2)c1=O [Example 1] | excellent solubility | 12.5 | –
2 | N#Cc1ccccc1-c1cc(-c2ccccn2)cn(-c2ccccc2)c1=O [Reference Example 1, 3-(2-cyanophenyl)-5-(2-pyridyl)-1-phenyl-1,2-dihydropyridin-2-one, reference compound] | – | 4.8 | –
3 | N#Cc1ccccc1-c1cc(-c2ccccn2)cn(-c2ccccc2)c1=O [compound (1), 3-(2-cyanophenyl)-5-(2-pyridyl)-1-phenyl-1,2-dihydropyridin-2-one] | – | – | significant antagonistic action
